Data set [1] in a line: Biotransformation in zebrafish embryos (cysteine conjugates, LC/MS). Format: in vivo. The following applies: 5 μM in incubation medium, 8 hpf to 24 hpf. As to the method: Fifty zebrafish embryos at the 8 hour-post-fertilization (hpf) stage were incubated at 28.5° C. in 0.3× Danieau's solution (19.3 mM NaCl, 0.23 mM KCl, 0.13 mM MgSO4, 0.2 mM Ca(NO3)2, 1.7 mM HEPES, pH 7.0) with or without 5 μM 18 and 25-27, respectively. At 24 hpf, embryos were dechorionated manually and the chorions were carefully removed one by one from the culture medium. The zebrafish embryos were harvested and kept at −80° C. till analyzed by LC/MS.
200 μL Sodium acetate buffer solution (pH 5.0) was added to 50 zebrafish embryos. Samples were homogenized for 90 s by an Omni Bead Ruptor Homogenizer (Kennesaw, Ga., United States of America). 10 μL 10% ascorbic acid and 300 μL sodium acetate buffer were added to the homogenates. The mixture was incubated in the presence of β-glucuronidase (250 U) and sulfatase (3 U) at 37° C. for 45 min, and then 600 μL MeOH with 1% acetic acid was added. The resulting mixture was vortexed for 30 s and then centrifuged at 17000 g for 10 min. The supernatant was removed and evaporated under a gentle stream of nitrogen. The residue was reconstituted in 150 μL 90% MeOH with 0.2% acetic acid (AA), and 10 μL was analyzed directly by LC/MS.
LC/MS analysis was carried out with a Thermo-Finnigan Spectra System, which consisted of an Accela high speed MS pump, an Accela refrigerated autosampler, and an LCQ Fleet ion trap mass detector (Thermo Electron, San Jose, Calif., United States of America) incorporated with an electrospray ionization (ESI) interface. A Gemini-NX C18 column (150 mm×4.6 mm i.d., 5 μm; Phenomenex, Torrance, Calif., United States of America) was used for separation at a flow rate of 0.3 mL/min. The column was eluted with 100% A (5% aqueous methanol with 0.2% formic acid) for 1 min, followed by linear increases in B (95% aqueous methanol with 0.2% formic acid) to 55% from 1 to 4 min, to 85% from 4 to 25 min, then to 100% B from 25 to 30 min, and then with 100% B from 30 to 35 min. The column was then re-equilibrated with 100% A for 5 min. The LC eluent was introduced into the ESI interface. The positive ion polarity mode was set for the ESI source with the voltage on the ESI interface maintained at approximately 4.6 kV. Nitrogen gas was used as the sheath gas and auxiliary gas. Optimized source parameters, including capillary temperature (260° C.), sheath gas flow rate (31 arbitrary units), auxiliary gas flow rate (16 units), tube lens (34 V), and capillary voltage 9 V, were tuned using authentic samples. The collision-induced dissociation (CID) was conducted with an isolation width 2 Da and normalized collision energy of 35 for MS^2. The mass range was measured from 100 to 800 m/z. Data acquisition was performed with Xcalibur version 2.0 (Thermo Electron, San Jose, Calif., United States of America).

A further data set deals with Nrf2. Kind of data set: Nrf2 reporter activity by Tg(gstp1:GFP) fluorescence in transgenic zebrafish embryos. The data set is classed as in vivo. As to conditions: 5 μM, 24-hour treatment from 1 dpf to 2 dpf; olfactory epithelia; relative to vehicle (DMSO = 1.00). As for the experimental part:
Zebrafish AB transgenic strains Tg(gstp1:GFP) were maintained in a Pentair Aquatic Ecosystem (Apopka, Fla., United States of America) fish housing unit with 14 h light/10 h dark cycle (see Tsujita, T., Li, L., Nakajima, H., Iwamoto, N., Nakajima-Takagi, Y., Ohashi, K., Kawakami, K., Kumagai, Y., Freeman, B. A., Yamamoto, M., and Kobayashi, M. (2011) “Nitro-fatty acids and cyclopentenone prostaglandins share strategies to activate the Keap1-Nrf2 system: a study using green fluorescent protein transgenic zebrafish.” Genes Cells 16, 46-57). The fish embryos were maintained at 28.5° C. in 0.3× Danieau's solution (19.3 mM NaCl, 0.23 mM KCl, 0.13 mM MgSO4, 0.2 mM Ca(NO3)2, 1.7 mM HEPES, pH 7.0) containing 30 μg/ml phenylthiourea (PTU) to inhibit pigmentation. Tg(gstp1:GFP) cross with AB wild-type strain fluorescence embryos were used for the experiment. Zebrafish embryos were washed, dechorionated and anaesthetized before observations, and fluorescence imaging for analysis.
Transgenic zebrafish embryos at 1 day-post-fertilization (dpf) were dechorionated and placed in Petri dishes containing different chemicals diluted in 0.3× Danieau's solution containing PTU. The chemical stock was dissolved in DMSO at 5 mM concentration.
An Olympus MVX10 Fluorescence Macroscope (Olympus, Center Valley, Pa., United States of America) equipped with a Hamamatsu C9300-221 high-speed digital CCD camera (Hamamatsu City, Japan) was used for fluorescence microscopy. Tg(gstp1:GFP) fluorescent embryos were anaesthetized in tricaine and imaged at 2 dpf. MetaMorph Basic software (Olympus, Center Valley, Pa., United States of America) was used for image acquisition and analysis.
Quantification of Nrf2 Reporter Activity by Tg(gstp1:
GFP) Fluoresence in Zebrafish Model. The fluorescence intensity of the olfactory neural epithelia was quantitated using MetaMorph Basic software. In brief, GFP expression in the olfactory regions of Tg(gstp1:GFP) embryos treated with various chemicals was measured after 24-hour treatment from 1 dpf to 2 dpf. The GFP induction was detectable by fluorescence signal at the area of the olfactory epithelia in the anterior of the head region, the intensity was measured using an area of a circle of 60 pixel diameter of the fluorescence olfactory epithelia subtracted by a background non-fluorescence area next to the zebrafish embryo. Both the left and right olfactory epithelia were measured to give an average fluorescence value. The values are an average of measurements from at least 10 embryos.

Data set [2] has as its system human colon cancer cells HCT-116. Kind of data set: MTT growth inhibition, HCT-116. Format: cell-based. As to conditions: 24 hours. As to the method:
(§1) Cell viability was determined by an MTT colorimetric assay. Briefly, human colon cancer cells HCT-116 or HT-29, were plated in 96-well microtiter plates with 3000 cells/well and allowed to attach for 24 hours at 37° C. and 5% CO2. The test compounds (in DMSO) were added to cell culture medium to desired final concentrations (final DMSO concentrations for control and treatments were 0.1%). After the cells were cultured for 24 hours, the medium was aspirated and cells were treated with 200 μL fresh medium containing 2.41 mmol/L MTT. After incubation for 3 hours at 37° C., the medium containing MTT was aspirated, 100 μL of DMSO was added to solubilize the formazan precipitate, and the plates were shaken gently for an hour at room temperature. Absorbance values were derived from the plate reading at 550 nm on a Biotek (Winooski, Vt., United States of America) microtiter plate reader. The reading reflected the number of viable cells and was expressed as a percentage of viable cells in the control. CCD-18Co cells were grown in EMEM. Both HCT-116 and HT-29 cells were cultured in McCoy's 5A medium. All of the above media were supplemented with 10% fetal bovine serum, 1% penicillin/streptomycin, and 1% glutamine, and the cells were kept in a 37° C. incubator with 95% humidity and 5% CO2.

Data set [3] deals with human colon cancer cells HT-29. Kind of data set: MTT growth inhibition, HT-29. The data set is classed as cell-based. As to conditions: 24 hours. As for the experimental part:
as §1

Structures are written as SMILES. Values joined by “and” are separate entries in the source; they are usually repeats but may differ in a detail not shown here. Equal values may be shown once.

This is an account of results in patent US10342766B2, “6-shogaol derivatives and activities thereof” (North Carolina Agricultural and Technical State University, priority 2017, dated 2019).

`CCCCC/C=C/C(=O)/C=C/c1ccc(O)c(O)c1` [Compound 26]: the “Cysteine conjugates found in zebrafish embryos” value in data set [1] was “Three conjugates 37, 37b, and 38 were detected”. Moreover, the “Ratio/CTL, Tg(gstp1:GFP) fluorescence signal” value in the data set on Nrf2 was 6.96 and 6.96 ± 0.48. Further, the figures for the concentration for half-maximal inhibition (IC50) in data set [2] and in data set [3] were 5.42 µM and 11.5 µM, respectively.
